These results are taken from patent US20130253048A1, “Pharmaceutical Composition for Promoting Osteogenesis Containing Axial-equatorial Aryl-oriented Furofuran-type Lignan, and Pharmaceutical Preparation, Functional Food Product, and Health Food Product Comprising Composition” (ERINA CO., INC., priority 2010, published 2013).

In the experiment the test system is osteopenia mouse caused by sRANKL administration. The experiment is described as follows: Osteopenia mouse caused by sRANKL administration, femur pQCT. The format is in vivo. The conditions noted are these: for Bone density of the cancellous bone, relative value / Bone density of the cortical bone, relative value / Bone density of whole bone, relative value: RANKL group = 100.0; for Bone density of the cancellous bone / Bone density of the cortical bone / Bone density of whole bone: day 4 to 13; for Bone density of whole bone: right femur, pQCT. As to the method:
C57BL/6NCrlCrlj mice (6-week-age, female) were purchased from Oriental Yeast Co., Ltd. and kept to be acclimatized under the conditions of 12 hour light/dark cycle, 23±3 degree centigrade, and humidity 55±5% for 7 days. Two mice were in a cage, and the animal bedding was changed twice a week, and all fresh animal bedding was used at all times. As the feed, CRF-1 (Oriental Yeast Co., Ltd.), and deionized water as the drinking water were freely taken.
After the acclimatization, these mice were randomly divided into 4 groups (8 mice per group), sRANKL administration group and fargesin administration groups. Fargesin administration groups had 0.2 mg/kg/day administration group (it is referred to as “Far 0.2”, hereinbelow), 2 mg/kg/day administration group (it is referred to as “Far 2” herein below), and 20 mg/kg/day administration group (it is referred to as “Far 20” herein below). sRANKL (1 mg/kg/day, i.p) was administered to all mice on the first day and the second day from test start to cause osteopenia experimentally.
From the 4th day to 13th day after the test start, distilled water or the test compounds shown in the following Table 10 were daily administered to the mice in each group.
After the administration period was finished and the experiment was completed, the femurs were removed in the same way as employed in Example 6 to be excised to evaluate the bone density. Body weight of the test animals and feed intake by the test animals were measured twice a week during the administration period.
The experiments were performed as the same as done in Example 6, right femur chosen from the obtained femurs was used for measurement of the bone density.
The whole bone density, the cancellous bone density, the cortical bone density, the boundary length of the cortical bone adventitia, the length of the cortical bone endosteum, and the bone strength were measured at the site of −0.6 mm from the growth plate of the bone (see FIG. 3A).

Where [1] appears, read: sRANKL-treated mice, Far 0.2: 0.2 mg/kg/day p.o.
The mark [2] stands for this setting: sRANKL-treated mice, Far 2: 2 mg/kg/day p.o.
Where [3] appears, read: sRANKL-treated mice, Far 20: 20 mg/kg/day p.o.

Each structure is given as a SMILES string. Marks after values point to notes of the source that are not given here.

Consider `COc1ccc([C@@H]2OC[C@H]3[C@@H]2CO[C@@H]3c2ccc3c(c2)OCO3)cc1OC` [fargesin, Fargesin], for which the “Bone density of the cancellous bone, relative value” is reported as “(100.7)” (Far 0.2: 0.2 mg/kg/day p.o.), “(104.0)” (Far 2: 2 mg/kg/day p.o.) and “(129.4)*” (Far 20: 20 mg/kg/day p.o.). For the same compound, the “Bone density of the cortical bone, relative value” reads like this: (Far 0.2: 0.2 mg/kg/day p.o.) “(98.7)”; (Far 2: 2 mg/kg/day p.o.) “(98.9)”; (Far 20: 20 mg/kg/day p.o.) “(98.6)”. The “Bone density of whole bone, relative value” (Far 0.2: 0.2 mg/kg/day p.o.) is recorded as 99.5; the “Bone density of whole bone, relative value” (Far 2: 2 mg/kg/day p.o.) is listed as 99.5; the “Bone density of whole bone, relative value” (Far 20: 20 mg/kg/day p.o.) is 110. Further, the “bone strength, Polar coordinates strength (SSI)” value (sRANKL-treated mice, 0.2 to 20 mg/kg/day p.o.) is reported as “trend that the bone strength was improved”. Moreover, the “Bone density of the cancellous bone” value is, setting by setting: under setting [1], 261.64 ± 17.92 mg/mL; under setting [2], 270.30 ± 20.64 mg/mL; under setting [3], 336.25 ± 13.50 mg/mL. The “Bone density of the cortical bone” value is 797.40 ± 6.12 mg/mL under setting [1], 798.60 ± 4.56 mg/mL under setting [2] and 796.33 ± 3.89 mg/mL under setting [3]. The “Bone density of whole bone” value is, setting by setting: under setting [1], 484.33 ± 11.09 mg/mL; under setting [2], 487.30 ± 16.36 mg/mL; under setting [3], 532.69 ± 8.06 mg/mL.
